21 compounds from paper PMC5505701, “Somatostatin binds to the human amyloid β peptide and favors the formation of distinct oligomers” (eLife, 2017) can be followed below.

Experiment [1] has as its system oligomeric versus monomeric Aβ1-42 (Aβ1-42-biotin bait). Kind of experiment: Affinity capture interactome Experiment III (oAβ1-42-biotin vs mAβ1-42-biotin). To be noted: TMT; for Experiment III oAβ1-42-B/mAβ1-42-B Ratio: oligomeric versus monomeric bait, human frontal lobe digitonin extract, pH 8.0, 4°C overnight.
In experiment [2] the test system is oligomeric Aβ1-42 (oAβ1-42-biotin bait). The experiment can be described thus: Affinity capture interactome Experiment II (C-terminally tethered oAβ1-42-biotin vs biotin). The settings on record: enrichment relative to biotin-only negative control; human frontal lobe digitonin extract; TMT; pH 8.0, 4°C overnight.
The next experiment addresses T1, Aβ1-40 (Homo sapiens, UniProt P05067).
T1 construct: Aβ1-40 (catalog number AS-24236); purchased Anaspec, Inc. (Fremont, CA, USA) AS-24236; host or cells: synthetic peptide
Kind of experiment: ThT fluorescence Aβ1-40 aggregation assay. The format is biochemical. To be noted: 5 to 10 times higher peptide concentrations. The source says: (§1) Next, Western blot analyses of ThT assay fractions were undertaken without or with prior boiling in SDS. […] Only when SDS was present in the sample buffer, low mass bands appeared in the Western blot that migrated at a level expected for the monomeric Aβ peptide, consistent with the interpretation that these peptides were released from larger oligomeric or fibrillar aggregates under denaturing conditions (see also Figure 5).
(§2) Assay procedures were largely based on a protocol described by Sarah Linse’s group ([Hellstrand et al., 2010]). […] 100 μL of peptide solutions were supplemented with 25 μM thioflavin T (ThT) (catalog number T3516, Sigma-Aldrich Canada, Oakville, ON, Canada) and loaded into 96-Well Half-Area Microplates (catalog number 675096, Greiner Bio One International, Kremsmünster, Austria). The subsequent plate incubation proceeded at 37°C with shaking at 700 rpm for 4 of every 5 min in a microplate reader (CLARIOstar, BMG Labtech, Guelph, ON, Canada) for overall durations specified in individual figures. ThT fluorescence was measured every 5 min at excitation and emission wavelengths of 444 nm and 485 nm, respectively.

Experiment [3] has as its system tau phosphorylated at pSer202/pThr205 (AT8) and pThr231 (AT180) in primary hippocampal neurons. The experiment can be described thus: Primary hippocampal neuron tau phosphorylation assay (Western blot). To be noted: for reduction in tau phosphorylation at AT8, pre-aggregated peptide alone: peptide subjected to pre-aggregation step, no Aβ; for effect on oAβ1-42-induced tau hyperphosphorylation: peptide added together with oAβ1-42.

Experiment [4] deals with T2, Aβ1-42 (Homo sapiens, UniProt P05067).
T2 construct: purchased Anaspec, Inc. (Fremont, CA, USA) AS-24224; host or cells: synthetic peptide
T2 sequence (P05067 672-713 limits assumed): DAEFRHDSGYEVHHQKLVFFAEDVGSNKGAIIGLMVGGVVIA
Kind of experiment: Western blot of ThT assay fractions: oligomeric complexes of Aβ1-42. It counts as biochemical. The settings on record: for SDS-stable complex with three Aβ1-42 peptides: five-fold increased Aβ1-42 level.
Source text: as §1
(In western blotting, separated proteins are transferred to a membrane and probed.)

In experiment [5] the target is T2, Aβ1-42. Kind of experiment: Thioflavin T (ThT) fluorescence Aβ1-42 aggregation assay. It counts as biochemical. On the procedure:
as §2

For experiment [6], the target named is T2, Aβ1-42. Kind of experiment: Western blot / silver stain detection of Aβ1-42 after incubation with SST14 or CST17. It counts as biochemical. On the procedure: Initially, we were interested in observing the influence of incubation time on sample composition (Figure 5B).
Experiment [7] concerns Aβ1-42 and Aβ17-42 biotin baits. Kind of experiment: iTRAQ affinity capture with four baits (biotin, biotin-Aβ1-42, Aβ1-42-biotin, Aβ17-42-biotin). The settings on record: oAβ1-42-biotin versus N-terminally biotinylated Aβ1-42, Aβ17-42-biotin and biotin; human frontal lobe extract. It counts as binding. The text has this: This conclusion was strengthened by the fact that this peptide is naturally preceded by a tryptic cleavage site and the exquisite match between observed and in silico predicted fragment ions (Figure 2B). In light of the high intensity ion counts of fragments observed for this peptide and its robust co-enrichment with oAβ1-42-B in three biological replicates (Figure 2C), it first seemed puzzling that the identification of this protein group was not corroborated by other spectra that map to sequences outside of the ‘NFFWK’ sequence stretch. Searching for a plausible explanation, it became apparent that preprosomatostatin and preprocortistatin give rise to cyclic neuropeptide hormones through a series of posttranslational trimming steps, and the ‘NFFWK’ peptide is the only tryptic peptide derived from the mature hormone that is of sufficient length and distinct sequence to be readily identifiable by MS (Figure 2A). […] This conclusion was further corroborated by two additional PSMs that mapped to regions outside the SST14 neuropeptide sequence and one additional five amino acid peptide of the sequence ‘TFTSC’ that could be assigned (albeit not unambiguously) to the mature SST14 neuropeptide sequence itself.

The target in the next experiment is Aβ1-42-TMR (Homo sapiens, UniProt P05067). The experiment can be described thus: FRET competition assay (Edans-SST14 / Aβ1-42-TMR).
Chain of Aβ1-42-TMR (P05067 672-713 limits assumed): as above

Entries after “also recorded” stand apart in the source; their conditions may differ. No end group written: not given here.

T1 sequence (P05067 672-711 limits assumed): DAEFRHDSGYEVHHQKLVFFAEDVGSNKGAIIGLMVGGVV

For “Dihydropyrimidinase-related protein 3: human brain protein”, in experiment [1], the “Experiment III oAβ1-42-B/mAβ1-42-B Ratio” value is given as 3.40. Also, the “Experiment II oAβ1-42-B/B Ratio” value in experiment [2] is listed as 1.42.

Consider “Aβ1-40: synthetic human Aβ1-40, Anaspec AS-24236”, for which the “lag phase of Aβ1-40 aggregation” value in the experiment with Aβ1-40 (peptide alone) was determined as 45 min.

As to “Transforming protein RhoA: human brain protein”, the “Experiment III oAβ1-42-B/mAβ1-42-B Ratio” value in experiment [1] was 5.74.

On to “Interleukin enhancer-binding factor 2: human brain protein”, for which, in experiment [1], the “Experiment III oAβ1-42-B/mAβ1-42-B Ratio” value was 1.41.

As to [Arg8]-vasopressin [AVP], the “reduction in tau phosphorylation at AT8, pre-aggregated peptide alone” value (“reduction in tau phosphorylation at AT8” for short) in experiment [3] is “not seen”. The “formation of 50-60 kDa Aβ1-42 bands (in words)” value with Aβ1-42 [4] (18 hr co-incubation, 6E10) is “not seen in samples incubated either without these peptides or with AVP”. For the same compound, in the experiment with Aβ1-42 [4] (Western blot), the “SDS-stable complex with three Aβ1-42 peptides” value was “never observed in fractions lacking SST14 (or CST17) or containing AVP”. The “lag phase extension of Aβ1-42 aggregation” value in the experiment with Aβ1-42 [5] (15 μM SST14 (or control peptide), SEC-purified Aβ1-42, 25 μM ThT, 37°C, shaking 700 rpm) is listed as “No delay was observed”.

Consider “oxytocin: control neuropeptide, Anaspec AS-24275”, for which, in experiment [3], the “reduction in tau phosphorylation at AT8” value is on record as “not seen”.

For the compound “ATP synthase subunit beta, mitochondrial: human brain protein”, the “Experiment III oAβ1-42-B/mAβ1-42-B Ratio” value in experiment [1] is 2.61.

For the compound Cathepsin D: human brain protein, in [1], the “Experiment III oAβ1-42-B/mAβ1-42-B Ratio” value is given as 2.10.

Take “Carbohydrate kinase domain-containing protein: human brain protein”: the “Experiment III oAβ1-42-B/mAβ1-42-B Ratio” value in experiment [1] was found to be 1.72. In addition, in [2], the “Experiment II oAβ1-42-B/B Ratio” value was determined as 2.17.

On to “Ras-related protein Rab-1A: human brain protein”, for which the “Experiment III oAβ1-42-B/mAβ1-42-B Ratio” value in [1] is 3.28.

On to “2,4-dienoyl-CoA reductase, mitochondrial: human brain protein”, for which the “Experiment III oAβ1-42-B/mAβ1-42-B Ratio” value in experiment [1] came to 4.32.

For “CST29: preprocortistatin-derived regulatory peptide, Bachem H-6458 (QEGAPPQQSARRDRMPCRNFFWKTFSSCK; ends and bridges not checked; cysteine pairing not given here; UniProt O00230 77-105, looked up)”, the “effect on oAβ1-42-induced tau hyperphosphorylation” value in experiment [3] is listed as “did not prevent the anticipated tau hyperphosphosphorylation-inducing effect of oAβ1-42 exposure”.

On to “CST17: preprocortistatin-derived regulatory peptide, Bachem H-5536”, for which the “effect on oAβ1-42-induced tau hyperphosphorylation” value in experiment [3] is “did not prevent the anticipated tau hyperphosphosphorylation-inducing effect of oAβ1-42 exposure”. Also, in experiment [3] (pre-incubated peptide 4 µM + mAβ1-42 5 µM, 24 hr exposure), the “potentiation of tau hyperphosphorylation with monomeric Aβ1-42” value is listed as “potentiate tau hyperphosphorylation”. Moreover, the “intensity of homodimeric Aβ1-42 bands” value with Aβ1-42 [4] (Western blot lanes 17-20) was “reduced”. For the same compound, the “size of SDS-resistant heterodimeric complex with mAβ1-42” value in the experiment with Aβ1-42 [4] (Western blot, x-42 and 6E10 antibodies) is 5-6 kDa. In addition, in the experiment with Aβ1-42 [4] (boiled in SDS), the “detection of 50-60 kDa bands by antibody directed against C-terminus of Aβ1-42” value was “escaped detection with an antibody directed against the C-terminus of Aβ1-42”. For the same compound, in the experiment with Aβ1-42 [4] (Western blot), the “SDS-stable complex with three Aβ1-42 peptides” value is given as “occasionally observed signals that migrated at molecular masses expected for SDS-stable complexes consisting of three Aβ1-42 peptides”. The “lag phase extension of Aβ (Aβ1-40) aggregation” value with Aβ1-40 (SST14 not shown) is reported as “approximately one hour”. Also, the “intensity of HMM 6E10 signals” value in the experiment with Aβ1-42 [6] (18 hr incubation, 6E10 Western blot) is listed as “only very weak HMM signals”. The “concentration dependence of 6E10-reactive blot signals” value in the experiment with Aβ1-42 [6] (18 hr incubation, varying SST14 or CST17 concentration) is reported as “inverse correlation”. Besides, the “masking of Aβ1-42 detection by antibodies 6E10, 4G8, 12F4” value with Aβ1-42 [6] (18 hr incubation, 4G8 and 12F4 not shown) is on record as “masked the ability of these antibodies to bind to Aβ1-42”. For the same compound, the “silver-stain Aβ1-42 signal” value with Aβ1-42 [6] (silver-stain of same fractions) is “relatively stronger Aβ1-42 signals”. Moreover, in the experiment with Aβ1-42 [5] (5 to 10 times higher peptide concentrations, SST14 not shown), the “lag phase extension of Aβ (Aβ1-42) aggregation” value is listed as “approximately one hour”. The “concentration dependence of effect on Aβ1-42 aggregation” value with Aβ1-42 [5] (ThT, 37°C) is “concentration-dependent inhibition of Aβ1-42-dependent ThT fluorescence”. In addition, the “relative potency versus SST14 in interfering with Aβ1-42 aggregation” value in the experiment with Aβ1-42 [5] (compared with SST14 (at 15 μM in ThT assay)) is “more potent in this regard than SST14; also recorded: even more pronounced effects on Aβ aggregation than SST14”. Besides, the “inhibition of Aβ1-42-dependent ThT incorporation” value with Aβ1-42 [5] (peptide 15 μM, 37°C, 25 μM ThT) is “completely abrogated ThT incorporation”.

For the compound “DnaJ homolog subfamily A member 2: human brain protein”, the “Experiment III oAβ1-42-B/mAβ1-42-B Ratio” value in [1] was 6.10.

With “Dihydropyrimidinase-related protein 1: human brain protein”, in [1], the “Experiment III oAβ1-42-B/mAβ1-42-B Ratio” value turned out to be 3.71. For the same compound, in experiment [2], the “Experiment II oAβ1-42-B/B Ratio” value was 1.39.

Take NFFWK: in [7], the “capture by Aβ baits (iTRAQ signature ion intensity)” value is given as “the free N-terminus is indeed essential for this peptide-peptide interaction”. Besides, the “binding preference for oligomeric versus monomeric Aβ1-42-biotin (in words)” value in experiment [1] (Experiment III, human frontal lobe extract) is listed as “binds preferentially to oligomeric (pre-aggregated) but not monomeric Aβ1-42-biotin”.

In general, EC50 refers to the concentration giving half of the maximal effect. High values mean weaker potency, low ones greater potency. Turning to `C[C@H](N)C(=O)NCC(=O)N[C@H]1CSSC[C@@H](C(=O)O)NC(=O)[C@H](CO)NC(=O)[C@H]([C@@H](C)O)NC(=O)[C@H](Cc2ccccc2)NC(=O)[C@H]([C@@H](C)O)NC(=O)[C@H](CCCCN)NC(=O)[C@H](Cc2c[nH]c3ccccc23)NC(=O)[C@H](Cc2ccccc2)NC(=O)[C@H](Cc2ccccc2)NC(=O)[C@H](CC(N)=O)NC(=O)[C@H](CCCCN)NC1=O` [SST14, somatostatin-14], at Aβ1-42-TMR, it took 12.7 µM to reach a half-maximal effect (EC50).

Regarding bombesin, the “reduction in tau phosphorylation at AT8” value in experiment [3] is recorded as “not seen”.

Regarding “Pyruvate kinase isozymes M1/M2: human brain protein”, the “Experiment III oAβ1-42-B/mAβ1-42-B Ratio” value in experiment [1] worked out at 4.33. Further, the “Experiment II oAβ1-42-B/B Ratio” value in experiment [2] is on record as 1.68.

For the compound Cofilin-1: human brain protein, in [1], the “Experiment III oAβ1-42-B/mAβ1-42-B Ratio” value worked out at 5.34. In addition, in experiment [2], the “Experiment II oAβ1-42-B/B Ratio” value stood at 1.75.

Turning to “SST28: longer bioactive version of somatostatin, Anaspec AS-22902 (SANSNPAMAPRERKAGCKNFFWKTFTSC; ends and bridges not checked; cysteine pairing not given here; UniProt P61278 89-116, looked up)”, the “effect on oAβ1-42-induced tau hyperphosphorylation” value in experiment [3] is given as “did not prevent the anticipated tau hyperphosphosphorylation-inducing effect of oAβ1-42 exposure”.
